In the NIST ThermoML archive (doi:10.1016/j.jct.2012.11.032):

Assay: xn = mol fraction of the nth substance listed
Conditions: 101 kPa, Liquid; for speed of sound: Sing-around technique in a fixed-path interferometer; for mass density: Vibrating tube method

CCCCCCCC[n+]1ccn(C)c1.[Cl-] [1-methyl-3-octylimidazolium chloride] + O
Conditions | mass density, 283 K [kg/m3] | mass density, 288 K [kg/m3] | mass density, 293 K [kg/m3] | speed of sound, 283 K [m/s] | speed of sound, 288 K [m/s] | speed of sound, 293 K [m/s] | speed of sound, 298 K [m/s]
x1 = 0.000276 | 999.831 | 999.227 | 998.326 | 1451.5 | 1469.6 | 1485.5 | 1499.5
x1 = 0.000495 | 999.918 | 999.302 | 998.392 | 1454.3 | 1471.9 | 1487.7 | 1501.5
x1 = 0.000781 | 1000.05 | 999.421 | 998.497 | 1457 | 1474.6 | 1490.3 | 1503.9
x1 = 0.00102 | 1000.16 | 999.519 | 998.584 | 1460.1 | 1477.3 | 1492.6 | 1506.1
x1 = 0.0013 | 1000.3 | 999.641 | 998.69 | 1463.2 | 1480.2 | 1495.3 | 1508.5
x1 = 0.001503 | 1000.38 | 999.712 | 998.751 | 1465.5 | 1482.2 | 1497.2 | 1510.3
x1 = 0.001892 | 1000.56 | 999.863 | 998.879 | 1469.7 | 1486.1 | 1500.8 | 1513.6
x1 = 0.002073 | 1000.64 | 999.938 | 998.946 | 1471.7 | 1488 | 1502.5 | 1515.2
x1 = 0.002376 | 1000.78 | 1000.06 | 999.051 | 1474.9 | 1490.9 | 1505.2 | 1517.6
x1 = 0.00261 | 1000.89 | 1000.15 | 999.124 | 1477.4 | 1493.3 | 1507.3 | 1519.6
x1 = 0.002774 | 1000.96 | 1000.21 | 999.173 | 1479 | 1494.7 | 1508.7 | 1520.8
x1 = 0.003111 | 1001.11 | 1000.35 | 999.291 | 1482.5 | 1497.9 | 1511.6 | 1523.5
x1 = 0.003716 | 1001.38 | 1000.58 | 999.491 | 1488.4 | 1503.2 | 1516.5 | 1527.9
x1 = 0.003899 | 1001.46 | 1000.64 | 999.54 | 1489.7 | 1504.7 | 1517.8 | 1529.1
x1 = 0.004079 | 1001.55 | 1000.72 | 999.608 | 1491.9 | 1506.4 | 1519.3 | 1530.5
x1 = 0.004181 | 1001.59 | 1000.75 | 999.636 | 1492.8 | 1507.3 | 1520.1 | 1531.2
x1 = 0.004462 | 1001.71 | 1000.85 | 999.721 | 1495.5 | 1509.7 | 1522.3 | 1533.1
x1 = 0.004601 | 1001.77 | 1000.9 | 999.764 | 1496.8 | 1510.9 | 1523.3 | 1534
x1 = 0.004981 | 1001.93 | 1001.04 | 999.873 | 1500.1 | 1513.8 | 1525.9 | 1536.3
x1 = 0.005198 | 1002.02 | 1001.12 | 999.935 | 1501.6 | 1515.3 | 1527.2 | 1537.5
x1 = 0.005607 | 1002.2 | 1001.27 | 1000.06 | 1505.4 | 1518.4 | 1529.9 | 1539.8
x1 = 0.005782 | 1002.27 | 1001.32 | 1000.1 | 1506.8 | 1519.6 | 1530.9 | 1540.7
